Measurements reported in patent publication US4368267A, “Epoxidation of lower α-olefins” (priority 1980, dated 1983).
Where “and” joins values, the source holds several entries; their conditions need not be identical. Equal entries are not always repeated.

Legend:
[1] = tested on: Methylobacterium organophilum XX (ATCC 27,886); test: Methane hydroxylation and propylene epoxidation by washed cell suspensions; type: cell-based; settings: methane-grown washed cells, 30° C.
Method: (§1) The pH of the nutrient medium was adjusted to 7.0 by the addition of acid or base and 50 ml aliquots of the nutrient medium was charged into a plurality of 300 ml shake flasks. The shake flasks were inoculated with an inoculating loop of cells from an agar plate containing homogeneous colonies of the microorganisms on the plate (the purity of the isolates were confirmed by microscopic examination). The isolates had been maintained on agar plates under an atmosphere of methane and air having a 1:1 v/v gas ratio which had been transferred every two weeks. The gaseous phase of the inoculated flasks was then replaced with a gas mixture comprised of methane and air having a ratio of 1:1 on a v/v basis. The inoculated flasks were sealed air tight and were incubated on a rotary shaker of orbital radius 2.5 cm at 250 rpm and at 30° C. for two days until the turbidity in the medium had developed.
The cells were harvested by centrifugation at 10,000 ×g at 4° C. for 30 minutes. The cell pellet was washed twice with a 0.15 M phosphate buffer at a pH of 7.0 (containing 0.002 M MgCl2). […]
A 0.5 ml aliquot of each washed cell suspension (2 mg cells) was put into 10 ml vials at 4° C. which were sealed with a rubber cap. […] Samples of product (3 μl) were withdrawn periodically with a microsyringe and the products were analyzed by gas chromatography (ionization flame detector column).

[2] = tested on: Methylomonas albus BG8 (NRRL B-11,200); test: Methane hydroxylation and alkene epoxidation by washed cell suspensions; type: cell-based; settings: methane-grown washed cells, 30° C.
Method: as §1, with “The shake flasks were inoculated with an inoculating loop of cells from an agar plate containing homogeneous colonies of the microorganisms on the plate (the purity of the isolates were confirmed by microscopic examination).” left out
(§2) The cells were harvested by centrifugation at 10,000 ×g at 4° C. for 30 minutes. The cell pellet was washed twice with a 0.15 M phosphate buffer at a pH of 7.0 (containing 0.002 M MgCl2). The washed cells were then suspended in a 0.15 M phosphate buffer at pH 7.0.
(§3) A 0.5 ml aliquot of each washed cell suspension (2 mg cells) was put into 10 ml vials at 4° C. which were sealed with a rubber cap. The gaseous phase of the vials was removed with vacuum and then was replaced with a gas mixture of alkene and oxygen at a 1:1 v/v ratio. It was then incubated at 30° C. on a rotary shaker at 300 rpm. Samples of product (3 μl) were withdrawn periodically with a microsyringe and the products were analyzed by gas chromatography (ionization flame detector column).

[3] = tested on: Methylosinus sporium 5 (NRRL B-11,197); test: as above; type: cell-based; settings: methane-grown washed cells, 30° C.
Method: as §1, with “The shake flasks were inoculated with an inoculating loop of cells from an agar plate containing homogeneous colonies of the microorganisms on the plate (the purity of the isolates were confirmed by microscopic examination).” left out
as §2
A 0.5 ml aliquot of each washed cell suspension (2 mg cells) was put into 10 ml vials at 4° C. which were sealed with a rubber cap. […] It was then incubated at 30° C. on a rotary shaker at 300 rpm. Samples of product (3 μl) were withdrawn periodically with a microsyringe and the products were analyzed by gas chromatography (ionization flame detector column).

[4] = tested on: Methylobacter capsulatus Y (NRRL B-11,201); test: Methane hydroxylation and propylene epoxidation by washed cell suspensions; type: cell-based; settings: for Ability to hydroxylate methane or epoxidize C2 -C4 alkenes: methanol-grown washed cells
[5] = biological target: T1, cell-free fractions of Methylococcus capsulatus (CRL M1, NRRL B-11,219) (Methylococcus capsulatus, UniProt G1UBD1+Q603F1+Q607G3); test: Epoxidation and hydroxylation activities in cell-free fractions; type: biochemical
T1 sequence (G1UBD1 33-414): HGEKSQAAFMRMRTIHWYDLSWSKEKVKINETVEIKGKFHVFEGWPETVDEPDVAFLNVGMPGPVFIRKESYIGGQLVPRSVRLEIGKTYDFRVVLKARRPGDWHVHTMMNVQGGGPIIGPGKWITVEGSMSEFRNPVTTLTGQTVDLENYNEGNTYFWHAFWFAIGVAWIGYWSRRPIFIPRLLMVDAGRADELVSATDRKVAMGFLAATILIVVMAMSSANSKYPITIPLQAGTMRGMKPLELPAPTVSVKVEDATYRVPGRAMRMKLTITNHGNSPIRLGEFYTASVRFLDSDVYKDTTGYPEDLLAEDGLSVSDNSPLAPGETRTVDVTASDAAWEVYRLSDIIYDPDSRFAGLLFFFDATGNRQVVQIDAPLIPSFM
T1 sequence (Q607G3 1-247): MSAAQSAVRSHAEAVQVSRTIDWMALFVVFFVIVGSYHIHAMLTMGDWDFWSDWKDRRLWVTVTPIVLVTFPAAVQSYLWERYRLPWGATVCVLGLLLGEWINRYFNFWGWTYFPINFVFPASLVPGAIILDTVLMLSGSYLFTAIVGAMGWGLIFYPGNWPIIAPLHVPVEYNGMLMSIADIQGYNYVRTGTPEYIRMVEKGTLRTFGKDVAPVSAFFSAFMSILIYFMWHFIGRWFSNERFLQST
T1 sequence (Q603F1 1-260): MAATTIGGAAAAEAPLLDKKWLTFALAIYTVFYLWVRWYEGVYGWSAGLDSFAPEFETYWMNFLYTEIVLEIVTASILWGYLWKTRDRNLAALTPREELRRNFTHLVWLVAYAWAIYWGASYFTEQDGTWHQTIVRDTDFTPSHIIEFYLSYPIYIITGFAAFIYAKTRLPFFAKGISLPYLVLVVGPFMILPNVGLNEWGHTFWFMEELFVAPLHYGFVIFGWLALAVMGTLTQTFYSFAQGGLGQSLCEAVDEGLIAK
Method: Cells of methane-grown Methylococcus capsulatus (CRL M1, NRRL B-11,219) were obtained by the method of Example 1. […] However, when the cells were disrupted by passing twice through a French pressure cell (1000 Kg. pressure), both activities were found in the crude extract after 10,000×g. centrifugation. All of the activity in the crude extract was collected as a particulate fraction by further centrifugation of the crude extract at 40,000×g. for 90 min. at 4° C.

[6] = tested on: Methylocystis parvus OBBP (NRRL B-11,198); test: Methane hydroxylation and alkene epoxidation by washed cell suspensions; type: cell-based; settings: for Ability to hydroxylate methane or epoxidize C2 -C4 alkenes: methanol-grown washed cells
Method: (§4) The pH of the nutrient medium was adjusted to 7.0 by the addition of acid or base and 50 ml aliquots of the nutrient medium was charged into a plurality of 300 ml shake flasks. […] The isolates had been maintained on agar plates under an atmosphere of methane and air having a 1:1 v/v gas ratio which had been transferred every two weeks. […] The inoculated flasks were sealed air tight and were incubated on a rotary shaker of orbital radius 2.5 cm at 250 rpm and at 30° C. for two days until the turbidity in the medium had developed.
as §2, §3

[7] = tested on: Methylomonas methanica S1 (NRRL B-11,199); test: as above; type: cell-based; settings: for Ability to hydroxylate methane or epoxidize C2 -C4 alkenes: methanol-grown washed cells
Method: as §4, §2, §3

[8] = methane-grown washed cells, 30° C.
[9] = Particulate fraction (10,000 g.-40,000 g.), 1 mg. protein
[10] = Supernatant fraction of 40,000 g., 2.5 mg. protein

Compound | Conversion rate, methane hydroxylation [1] | Conversion rate, methane hydroxylation [2] | Conversion rate, methane hydroxylation (methane to methanol) [3] | Conversion rate, methane hydroxylation [4, 8] | Ability to hydroxylate methane or epoxidize C2 -C4 alkenes [4] | Oxidation Rate, Hydroxylation of Methane [5, 9] | Oxidation Rate, Hydroxylation of Methane [5, 10] | Conversion rate, methane hydroxylation [6, 8] | Ability to hydroxylate methane or epoxidize C2 -C4 alkenes [6] | Conversion rate, methane hydroxylation [7, 8] | Ability to hydroxylate methane or epoxidize C2 -C4 alkenes [7] | Conversion rate, propylene to propylene oxide [1] | Conversion rate, propylene to propylene oxide [2] | Conversion rate, propylene to propylene oxide [3] | Oxidation Rate, Epoxidation of Propylene [5, 9] | Oxidation Rate, Epoxidation of Propylene [5, 10] | Conversion rate, propylene to propylene oxide [6, 8] | Conversion rate, propylene to propylene oxide [7, 8]
C [Methane] | 1.0 μmole/hr/mg protein | 1.8 μmole/hr/mg protein | 1.1 μmole/hr/mg protein and 1.8 μmole/hr/mg protein | 1.2 μmole/hr/mg protein | did not possess the ability | 500 μmoles/30 min/assay | 0 μmoles/30 min/assay | 0.7 μmole/hr/mg protein | did not possess the ability | 1.3 μmole/hr/mg protein | did not possess the ability |  |  |  |  |  |  | 
C=CC [Propylene] |  |  |  |  | did not possess the ability |  |  |  | did not possess the ability |  | did not possess the ability | 1.8 μmole/hr/mg protein | 1.4 μmole/hr/mg protein | 2.0 μmole/hr/mg protein | 750 μmoles/30 min/assay | 0 μmoles/30 min/assay | 1.6 μmole/hr/mg protein | 2.7 μmole/hr/mg protein
